What follows are compounds tested against T1, human PAH with the R408W mutation (Homo sapiens, UniProt P00439, R408W) (assay: Cell Based Phenylalanine Flux Assay). Conditions: A375 cells expressing human R408W PAH; 24 hrs compound incubation; 13C-Tyrosine by LC-MS; average where tested multiple times; read-out: AC50.
T1 construct: expressed in transfected cells
T1 sequence (P00439 1-452 R408W): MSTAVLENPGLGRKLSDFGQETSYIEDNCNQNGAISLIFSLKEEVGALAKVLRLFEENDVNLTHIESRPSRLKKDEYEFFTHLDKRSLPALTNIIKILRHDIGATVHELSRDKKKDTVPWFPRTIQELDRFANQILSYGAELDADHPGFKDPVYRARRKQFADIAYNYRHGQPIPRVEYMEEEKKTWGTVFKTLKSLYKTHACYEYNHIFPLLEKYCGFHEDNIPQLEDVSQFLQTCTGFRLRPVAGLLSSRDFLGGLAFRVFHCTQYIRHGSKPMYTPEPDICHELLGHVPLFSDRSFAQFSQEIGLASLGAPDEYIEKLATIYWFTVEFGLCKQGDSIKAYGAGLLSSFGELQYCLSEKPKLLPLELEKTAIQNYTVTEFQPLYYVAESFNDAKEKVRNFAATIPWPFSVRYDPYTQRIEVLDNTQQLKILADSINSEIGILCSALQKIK
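Further: after compound treatment, cells received sepiapterin plus isotope-labelled Phenylalanine for 4 hours, then labelled Tyrosine in the medium was quantified, 10-point 2-fold dilution series run in duplicate.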

AC50 [nM]	SMILES
1000 to 5000	CC1(c2nnc(C(=O)N3CCc4[nH]cnc4[C@@H]3c3cc4cccc(Cl)n4n3)o2)CC1 [Example 1297, (R)-(4-(7-chloropyrazolo[1,5-a]pyridin-2-yl)-6,7-dihydro-1H-imidazo[4,5-c]pyridin-5(4H)-yl)(5-(1-methylcyclopropyl)-1,3,4-oxadiazol-2-yl)methanone]
1000 to 5000	COc1ccc(-c2nnc(C(=O)N3CCc4[nH]cnc4[C@@H]3c3cc4c(Cl)cccn4n3)o2)nc1 [Example 1298, (R)-(4-(4-chloropyrazolo[1,5-a]pyridin-2-yl)-6,7-dihydro-1H-imidazo[4,5-c]pyridin-5(4H)-yl)(5-(5-methoxypyridin-2-yl)-1,3,4-oxadiazol-2-yl)methanone]
< 500	O=C(c1nnc(-c2cnccn2)o1)N1CCc2[nH]cnc2[C@H]1c1cc2c(C(F)(F)F)cccn2n1 [Example 1300, (S)-(5-(pyrazin-2-yl)-1,3,4-oxadiazol-2-yl)(4-(4-(trifluoromethyl)pyrazolo[1,5-a]pyridin-2-yl)-6,7-dihydro-1H-imidazo[4,5-c]pyridin-5(4H)-yl)methanone]
> 5000	O=C(c1nnc(-c2cnccn2)o1)N1CCc2[nH]cnc2[C@@H]1c1cc2c(C(F)(F)F)cccn2n1 [Example 1301, (R)-(5-(pyrazin-2-yl)-1,3,4-oxadiazol-2-yl)(4-(4-(trifluoromethyl)pyrazolo[1,5-a]pyridin-2-yl)-6,7-dihydro-1H-imidazo[4,5-c]pyridin-5(4H)-yl)methanone]
< 500	O=C(c1nnc(-c2cccnc2)o1)N1CCc2[nH]cnc2[C@H]1c1cc2c(C(F)(F)F)cccn2n1 [Example 1302, (S)-(5-(pyridin-3-yl)-1,3,4-oxadiazol-2-yl)(4-(4-(trifluoromethyl)pyrazolo[1,5-a]pyridin-2-yl)-6,7-dihydro-1H-imidazo[4,5-c]pyridin-5(4H)-yl)methanone]
1000 to 5000	O=C(c1nnc(-c2cccnc2)o1)N1CCc2[nH]cnc2[C@@H]1c1cc2c(C(F)(F)F)cccn2n1 [Example 1303, (R)-(5-(pyridin-3-yl)-1,3,4-oxadiazol-2-yl)(4-(4-(trifluoromethyl)pyrazolo[1,5-a]pyridin-2-yl)-6,7-dihydro-1H-imidazo[4,5-c]pyridin-5(4H)-yl)methanone]
< 500	Cc1ncccc1-c1nnc(C(=O)N2CCc3[nH]cnc3[C@H]2c2cc3c(C(F)(F)F)cccn3n2)o1 [Example 1304, (S)-(5-(2-methylpyridin-3-yl)-1,3,4-oxadiazol-2-yl)(4-(4-(trifluoromethyl)pyrazolo[1,5-a]pyridin-2-yl)-6,7-dihydro-1H-imidazo[4,5-c]pyridin-5(4H)-yl)methanone]
< 500	O=C(c1nnc(-c2cccnc2)o1)N1CCc2[nH]cnc2[C@H]1c1cc2cccc(Cl)n2n1 [Example 1306, (S)-(4-(7-chloropyrazolo[1,5-a]pyridin-2-yl)-6,7-dihydro-1H-imidazo[4,5-c]pyridin-5(4H)-yl)(5-(pyridin-3-yl)-1,3,4-oxadiazol-2-yl)methanone]
1000 to 5000	O=C(c1nnc(-c2cccnc2)o1)N1CCc2[nH]cnc2[C@@H]1c1cc2cccc(Cl)n2n1 [Example 1307, (R)-(4-(7-chloropyrazolo[1,5-a]pyridin-2-yl)-6,7-dihydro-1H-imidazo[4,5-c]pyridin-5(4H)-yl)(5-(pyridin-3-yl)-1,3,4-oxadiazol-2-yl)methanone]
< 500	Cc1cccc2cc([C@@H]3c4nc[nH]c4CCN3C(=O)c3nnc(-c4cccnc4)o3)nn12 [Example 1308, (S)-(4-(7-methylpyrazolo[1,5-a]pyridin-2-yl)-6,7-dihydro-1H-imidazo[4,5-c]pyridin-5(4H)-yl)(5-(pyridin-3-yl)-1,3,4-oxadiazol-2-yl)methanone]
1000 to 5000	Cc1cccc2cc([C@H]3c4nc[nH]c4CCN3C(=O)c3nnc(-c4cccnc4)o3)nn12 [Example 1309, (R)-(4-(7-methylpyrazolo[1,5-a]pyridin-2-yl)-6,7-dihydro-1H-imidazo[4,5-c]pyridin-5(4H)-yl)(5-(pyridin-3-yl)-1,3,4-oxadiazol-2-yl)methanone]
1000 to 5000	Cc1cccn2nc([C@H]3c4nc[nH]c4CCN3C(=O)c3nnc(-c4ncccn4)o3)cc12 [Example 1310, (R)-(4-(4-methylpyrazolo[1,5-a]pyridin-2-yl)-6,7-dihydro-1H-imidazo[4,5-c]pyridin-5(4H)-yl)(5-(pyrimidin-2-yl)-1,3,4-oxadiazol-2-yl)methanone]
500 to 1000	Cc1cccn2nc([C@@H]3c4nc[nH]c4CCN3C(=O)c3nnc(-c4ncccn4)o3)cc12 [Example 1311, (S)-(4-(4-methylpyrazolo[1,5-a]pyridin-2-yl)-6,7-dihydro-1H-imidazo[4,5-c]pyridin-5(4H)-yl)(5-(pyrimidin-2-yl)-1,3,4-oxadiazol-2-yl)methanone]
1000 to 5000	O=C(c1nnc(-c2ncccn2)o1)N1CCc2[nH]cnc2[C@@H]1c1cc2c(F)cccn2n1 [Example 1312, (R)-(4-(4-fluoropyrazolo[1,5-a]pyridin-2-yl)-6,7-dihydro-1H-imidazo[4,5-c]pyridin-5(4H)-yl)(5-(pyrimidin-2-yl)-1,3,4-oxadiazol-2-yl)methanone]
500 to 1000	O=C(c1nnc(-c2ncccn2)o1)N1CCc2[nH]cnc2[C@H]1c1cc2c(F)cccn2n1 [Example 1313, (S)-(4-(4-fluoropyrazolo[1,5-a]pyridin-2-yl)-6,7-dihydro-1H-imidazo[4,5-c]pyridin-5(4H)-yl)(5-(pyrimidin-2-yl)-1,3,4-oxadiazol-2-yl)methanone]
< 500	Cn1cc(-c2nnc(C(=O)N3CCc4[nH]cnc4[C@H]3c3cc4c(C(F)F)cccn4n3)o2)cn1 [Example 1316, (S)-(4-(4-(difluoromethyl)pyrazolo[1,5-a]pyridin-2-yl)-6,7-dihydro-1H-imidazo[4,5-c]pyridin-5(4H)-yl)(5-(1-methyl-1H-pyrazol-4-yl)-1,3,4-oxadiazol-2-yl)methanone]
1000 to 5000	Cn1cc(-c2nnc(C(=O)N3CCc4[nH]cnc4[C@@H]3c3cc4c(C(F)F)cccn4n3)o2)cn1 [Example 1317, (R)-(4-(4-(difluoromethyl)pyrazolo[1,5-a]pyridin-2-yl)-6,7-dihydro-1H-imidazo[4,5-c]pyridin-5(4H)-yl)(5-(1-methyl-1H-pyrazol-4-yl)-1,3,4-oxadiazol-2-yl)methanone]
< 500	Cc1cccc2cc([C@@H]3c4nc[nH]c4CCN3C(=O)c3nnc(C4(C)CC4)o3)nn12 [Example 1319, (S)-(5-(1-methylcyclopropyl)-1,3,4-oxadiazol-2-yl)(4-(7-methylpyrazolo[1,5-a]pyridin-2-yl)-6,7-dihydro-1H-imidazo[4,5-c]pyridin-5(4H)-yl)methanone]
1000 to 5000	CC1(c2nnc(C(=O)N3CCc4[nH]cnc4[C@@H]3c3cc4c(Cl)cccn4n3)o2)CC1 [Example 1320, (R)-(4-(4-chloropyrazolo[1,5-a]pyridin-2-yl)-6,7-dihydro-1H-imidazo[4,5-c]pyridin-5(4H)-yl)(5-(1-methylcyclopropyl)-1,3,4-oxadiazol-2-yl)methanone]
< 500	CC1(c2nnc(C(=O)N3CCc4[nH]cnc4[C@H]3c3cc4c(Cl)cccn4n3)o2)CC1 [Example 1321, (S)-(4-(4-chloropyrazolo[1,5-a]pyridin-2-yl)-6,7-dihydro-1H-imidazo[4,5-c]pyridin-5(4H)-yl)(5-(1-methylcyclopropyl)-1,3,4-oxadiazol-2-yl)methanone]
